Active and inactive are the calls of the source.
Assays:
ORF 73 = molecular target: T1, ORF 73 (Human herpesvirus 8, UniProt O40947); assay: KSHV LANA DNA-binding disruption – biochemical, fluorescence polarization, cherry-picked samples, dose response (AID 504725); set-up: species or system Human gammaherpesvirus 8;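 note: fluorescence polarization of a labeled DNA duplex reporting LANA DNA binding; potency is for inhibitors that block LANA binding to the DNA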
T1 sequence (O40947 whole entry): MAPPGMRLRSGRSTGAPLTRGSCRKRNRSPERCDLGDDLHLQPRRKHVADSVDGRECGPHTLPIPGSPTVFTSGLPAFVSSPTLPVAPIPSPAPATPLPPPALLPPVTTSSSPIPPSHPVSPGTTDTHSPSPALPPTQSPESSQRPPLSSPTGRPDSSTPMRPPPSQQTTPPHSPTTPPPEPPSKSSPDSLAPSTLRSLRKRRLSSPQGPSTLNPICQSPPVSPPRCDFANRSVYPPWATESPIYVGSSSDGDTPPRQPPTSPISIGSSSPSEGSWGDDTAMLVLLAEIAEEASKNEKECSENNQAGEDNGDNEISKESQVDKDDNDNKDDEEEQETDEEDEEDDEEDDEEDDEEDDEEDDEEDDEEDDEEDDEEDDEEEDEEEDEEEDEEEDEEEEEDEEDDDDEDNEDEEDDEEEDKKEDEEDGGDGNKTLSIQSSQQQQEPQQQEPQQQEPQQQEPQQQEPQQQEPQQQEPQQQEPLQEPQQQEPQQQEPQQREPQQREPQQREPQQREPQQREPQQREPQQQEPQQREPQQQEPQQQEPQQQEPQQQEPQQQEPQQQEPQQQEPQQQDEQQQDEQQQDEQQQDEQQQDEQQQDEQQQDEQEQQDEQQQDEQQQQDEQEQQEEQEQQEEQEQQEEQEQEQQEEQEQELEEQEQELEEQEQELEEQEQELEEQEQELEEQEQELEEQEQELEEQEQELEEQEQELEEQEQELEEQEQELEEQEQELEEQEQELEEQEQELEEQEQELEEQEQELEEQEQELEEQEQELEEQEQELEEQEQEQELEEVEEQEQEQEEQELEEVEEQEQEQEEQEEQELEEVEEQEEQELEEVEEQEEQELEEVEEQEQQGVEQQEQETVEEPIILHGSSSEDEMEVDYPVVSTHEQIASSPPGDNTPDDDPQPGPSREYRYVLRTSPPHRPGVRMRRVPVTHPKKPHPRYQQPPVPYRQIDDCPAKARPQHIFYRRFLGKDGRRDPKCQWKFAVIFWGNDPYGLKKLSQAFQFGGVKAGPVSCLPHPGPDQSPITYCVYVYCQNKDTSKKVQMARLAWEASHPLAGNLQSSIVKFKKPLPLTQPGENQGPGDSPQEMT

[1] = molecular target: T2, 1-phosphatidylinositol 4,5-bisphosphate phosphodiesterase gamma-1 (Homo sapiens, UniProt P19174); assay: Counterscreen for inhibitors of phospholipase C isozymes (PLC-B3): Fluorescence-based biochemical high throughput dose response assay to identify inhibitors of phospholipase C isozymes (PLC-gamma1).
T2 sequence (P19174 whole entry): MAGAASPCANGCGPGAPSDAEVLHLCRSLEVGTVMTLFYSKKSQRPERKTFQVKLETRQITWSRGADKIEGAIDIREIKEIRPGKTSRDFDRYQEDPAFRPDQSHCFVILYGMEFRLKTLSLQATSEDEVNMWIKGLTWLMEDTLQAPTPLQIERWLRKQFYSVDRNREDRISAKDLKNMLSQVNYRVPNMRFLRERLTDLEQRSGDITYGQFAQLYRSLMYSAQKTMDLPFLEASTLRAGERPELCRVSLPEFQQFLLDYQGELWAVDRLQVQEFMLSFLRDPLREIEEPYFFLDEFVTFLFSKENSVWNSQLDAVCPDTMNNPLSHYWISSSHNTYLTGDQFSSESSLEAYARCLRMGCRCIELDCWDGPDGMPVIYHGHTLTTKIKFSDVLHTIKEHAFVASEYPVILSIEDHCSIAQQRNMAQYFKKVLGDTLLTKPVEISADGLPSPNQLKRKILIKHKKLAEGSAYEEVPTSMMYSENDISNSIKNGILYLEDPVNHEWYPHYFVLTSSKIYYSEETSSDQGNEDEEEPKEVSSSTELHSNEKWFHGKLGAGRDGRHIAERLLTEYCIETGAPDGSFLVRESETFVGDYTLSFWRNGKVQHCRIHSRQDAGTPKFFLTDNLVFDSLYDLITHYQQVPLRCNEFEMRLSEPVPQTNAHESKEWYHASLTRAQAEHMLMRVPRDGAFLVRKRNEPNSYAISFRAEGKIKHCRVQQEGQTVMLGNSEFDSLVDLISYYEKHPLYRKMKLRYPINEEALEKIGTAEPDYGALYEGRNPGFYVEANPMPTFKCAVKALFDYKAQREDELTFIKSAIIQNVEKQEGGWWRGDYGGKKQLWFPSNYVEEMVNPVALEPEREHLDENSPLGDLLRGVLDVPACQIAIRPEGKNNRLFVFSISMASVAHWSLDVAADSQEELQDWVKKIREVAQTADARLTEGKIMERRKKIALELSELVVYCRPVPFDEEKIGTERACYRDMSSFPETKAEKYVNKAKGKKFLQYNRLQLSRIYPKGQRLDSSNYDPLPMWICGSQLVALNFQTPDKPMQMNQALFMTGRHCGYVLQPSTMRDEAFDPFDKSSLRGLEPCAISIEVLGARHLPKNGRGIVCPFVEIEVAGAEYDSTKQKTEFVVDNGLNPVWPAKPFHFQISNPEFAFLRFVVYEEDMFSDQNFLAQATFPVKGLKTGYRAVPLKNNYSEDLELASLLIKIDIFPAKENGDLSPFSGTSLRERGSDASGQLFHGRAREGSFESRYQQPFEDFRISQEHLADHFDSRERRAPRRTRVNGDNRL

CCN(CC)CCN1C(=O)c2cccc3cc(N)cc(c23)C1=O
AC50 (ORF 73): 17.1 µM (active)

O=S(=O)(O)c1cc(Cl)cc(N=Nc2ccc(O)cc2O)c1O
AC50 (ORF 73): 70.2 µM (active) | IC50 [1]: > 122 µM (inactive)

O=C(O)c1cccc(-n2cccc2/C=C2/NC(=O)N(c3ccc(Cl)cc3)C2=O)c1
AC50 (ORF 73): 23.3 µM (active) | IC50 [1]: > 122 µM (inactive)

Reference: ChEMBL document CHEMBL1201862, “PubChem BioAssay data set” (2004)
